Results on 31 compounds are retold here after patent US9469615B2, “Quinoxalines and AZA-quinoxalines as CRTH2 receptor modulators” (Merck Sharp & Dohme Corp., priority 2010, dated 2016).

Structures are written as SMILES.

This assay has as its target T1, hCRTH2 (Homo sapiens, UniProt Q9Y5Y4).
T1 construct: expressed in transfected cells; host or cells: HEK (human embryonic kidney) cells expressing hCRTH2; membrane preparation
T1 sequence (Q9Y5Y4 1-395): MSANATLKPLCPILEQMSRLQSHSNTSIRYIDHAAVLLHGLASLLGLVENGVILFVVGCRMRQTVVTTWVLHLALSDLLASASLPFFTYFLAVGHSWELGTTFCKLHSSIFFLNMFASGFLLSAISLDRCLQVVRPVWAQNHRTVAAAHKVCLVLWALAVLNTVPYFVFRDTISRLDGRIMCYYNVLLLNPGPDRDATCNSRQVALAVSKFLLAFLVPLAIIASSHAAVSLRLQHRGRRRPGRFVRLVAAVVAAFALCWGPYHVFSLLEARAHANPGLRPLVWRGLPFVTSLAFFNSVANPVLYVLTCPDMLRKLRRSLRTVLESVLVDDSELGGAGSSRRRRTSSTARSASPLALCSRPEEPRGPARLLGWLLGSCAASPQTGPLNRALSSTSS
Kind of assay: Radioligand binding assay ([3H]PGD2 competition, HEK-hCRTH2 membranes). The method, boiled down: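 Competition binding with 3.0 nM [3H]PGD2 and 8-20 μg HEK-hCRTH2 membrane protein in 50 mM Tris-HCl pH 7.4, 1 mM EDTA, 2 mM MnCl2, 1% Me2SO, 60 min at room temperature. Nonspecific binding defined with 10 μM PGD2; bound radioactivity counted after filtration.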

Setting [1] is: [3H]PGD2 binding, values in text.
The mark [2] stands for this setting: [3H]PGD2 binding, rated A-E (Table A).

Regarding `C[C@H](NC(=O)c1ccc2nc(-c3ccccc3)c(CCCCC(=O)O)nc2c1)c1cncc2ccccc12` [compound 637, (S)-5-(7-((1-(isoquinolin-4-yl)ethyl)carbamoyl)-3-phenylquinoxalin-2-yl)pentanoic acid], the inhibitory constant (Ki) (in general, a dissociation constant, usually derived from enzyme kinetics or from competition with a known ligand) is, setting by setting: under setting [1], 4.2 nM; ([3H]PGD2 competition, Table B) 2.1 to 20 nM.

For the compound `C[C@]1(c2ccccc2)CCCN(C(=O)c2ccc3nc(-c4ccccc4)c(CCCCC(=O)O)nc3c2)C1` [compound 170, 7-[(3(R)-methyl-3-phenyl-1-piperidinyl)carbonyl]-3-phenyl-2-quinoxalinepentanoic acid], the Ki under setting [2] is 2.1 to 20 nM.

In turn, `CON(C)C(=O)c1ccc2nc(-c3ccccc3)c(CCCCC(=O)O)nc2c1` [15BJ, 5-{7-[methoxy(methyl)carbamoyl]-3-phenylquinoxalin-2-yl}pentanoic acid] registered an inhibition constant (Ki) under setting [2] of 2.1 to 20 nM.

Where the note is “[3H]PGD2 competition, Table B”, `O=C(O)CCCc1nc2cc(C(=O)N[C@@H]3CCCc4cc(F)ccc43)ccc2nc1-c1ccccc1` [compound 723, (R)-4-(7-((6-fluoro-1,2,3,4-tetrahydronaphthalen-1-yl)carbamoyl)-3-phenylquinoxalin-2-yl)butanoic acid] gave a Ki of 20.1 to 200 nM.

Turning to `N#Cc1ccccc1N1CCN(C(=O)c2ccc3nc(-c4ccc(Cl)cc4)c(CCCCC(=O)O)nc3c2)CC1` [compound 631, 5-(3-(4-chlorophenyl)-7-(4-(2-cyanophenyl)piperazine-1-carbonyl)quinoxalin-2-yl)pentanoic acid], the inhibition constant (Ki) ([3H]PGD2 competition, Table B) is 0.1 to 2 nM.

Turning to `O=C(O)CCCCc1nc2cc(C(=O)N3CCC[C@@H](c4ccccc4)C3)ccc2nc1-c1ccc(Cl)cc1` [16o, 3-(4-chlorophenyl)-7-[(3(S)-phenyl-1-piperidinyl)carbonyl]-2-quinoxalinepentanoic acid], the Ki under setting [2] is 0.1 to 2 nM.

For `C[C@H](c1ccccc1)N(C)C(=O)c1ccc2nc(-c3ccc(F)cc3)c(CCCCC(=O)O)nc2c1` [compound 21, (R)-5-(3-(4-fluorophenyl)-7-(methyl(1-phenylethyl)carbamoyl)quinoxalin-2-yl)pentanoic acid], the inhibitory constant (Ki) under setting [2] was in the range of 0.1 to 2 nM.

For the compound `COc1cccc(C2CN(C(=O)c3ccc4nc(-c5ccccc5)c(CCCCC(=O)O)nc4c3)C2)c1` [compound 390, 5-(7-(3-(3-methoxyphenyl)azetidine-1-carbonyl)-3-phenylquinoxalin-2-yl)pentanoic acid], the inhibition constant (Ki) ([3H]PGD2 competition, Table B) was in the range of 0.1 to 2 nM.

Under setting [2], `O=C(O)CCCCc1nc2cc(C(=O)N[C@H]3CCCc4ccccc43)ccc2nc1-c1ccc(Cl)cc1` [16AN, 3-(4-chlorophenyl)-7-[[(1,2,3,4-tetrahydro-1(S)-naphthalenyl)amino]carbonyl]-2-quinoxalinepentanoic acid] gave a Ki of 0.1 to 2 nM.

Compound `O=C(O)CCCCc1nc2cc(C(=O)N3CCN(c4ccccc4)CC3)ccc2nc1-c1ccc(C(F)(F)F)cc1` [3Y, 7-[(4-phenyl-1-piperazinyl)carbonyl]-3-[4-(trifluoromethyl)phenyl]-2-quinoxalinepentanoic acid] registered a Ki under setting [2] of 0.1 to 2 nM.

Consider `Cc1ccc(CN2CCN(C(=O)c3ccc4nc(-c5ccc(Cl)cc5)c(CCCCC(=O)O)nc4c3)CC2)cc1` [compound 664, 5-(3-(4-chlorophenyl)-7-(4-(4-methylbenzyl)piperazine-1-carbonyl)quinoxalin-2-yl)pentanoic acid], for which, where the note is “[3H]PGD2 competition, Table B”, the Ki lay in the range of 2.1 to 20 nM.

With `O=C(O)CCCCc1nc2cc(NC(=O)c3ccc(OC(F)(F)F)cc3)ccc2nc1-c1ccccc1` [11D], under setting [2], the Ki lay in the range of 201 to 700 nM.

`O=C(O)CCCCc1nc2cc(C(=O)NCc3ccccn3)ccc2nc1-c1ccccc1` [15AF, 5-{3-phenyl-7-[(pyridin-2-ylmethyl)carbamoyl]quinoxalin-2-yl} pentanoic acid] came in with a Ki under setting [2] of 2.1 to 20 nM.

Compound `CC(CCc1nc2cc(C(=O)N3CCC[C@H](c4ccccc4)C3)ccc2nc1-c1ccc(Cl)cc1)CC(=O)O` (stereo partly drawn) [17J, 3-(4-chlorophenyl)-beta-methyl-7-[(3(R)-phenyl-1-piperidinyl)carbonyl]-2-quinoxalinepentanoic acid] registered a Ki under setting [2] of 2.1 to 20 nM.

On to `O=C(O)CCCC(F)c1nc2cc(C(=O)N[C@@H]3CCCc4ccccc43)ccc2nc1-c1ccc(Cl)cc1` (stereo partly drawn) [compound 35, 5-(3-(4-chlorophenyl)-7-(((R)-1,2,3,4-tetrahydronaphthalen-1-yl)carbamoyl)quinoxalin-2-yl)-5-fluoropentanoic acid], for which the inhibition constant Ki under setting [2] fell in the range of 20.1 to 200 nM.

Under “[3H]PGD2 competition, Table B”, `C[C@@H]1CN(c2ccccc2)CCN1C(=O)c1ccc2nc(-c3ccc(F)cc3)c(CCCCC(=O)O)nc2c1` [compound 499, (R)-5-(3-(4-fluorophenyl)-7-(2-methyl-4-phenyl-piperazine-1-carbonyl)quinoxalin-2-yl)pentanoic acid] yielded an inhibition constant Ki of 2.1 to 20 nM.

Under “[3H]PGD2 competition, Table B”, `O=C(O)CCCCc1nc2cc(C(=O)N[C@@H]3CCOc4cc(F)ccc43)ccc2nc1-c1ccccc1` [compound 643, (R)-5-(7-((7-fluoro-chroman-4-yl)carbamoyl)-3-phenylquinoxalin-2-yl)pentanoic acid] displayed an inhibition constant (Ki) of 0.1 to 2 nM.

Turning to `CC(CCc1nc2cc(C(=O)N[C@@H](c3ccccc3)C(F)(F)F)ccc2nc1-c1ccc(Cl)cc1)CC(=O)O` (stereo partly drawn) [17M, 3-(4-chlorophenyl)-beta-methyl-7-[[[2,2,2-trifluoro-(1S)-phenylethyl]amino]carbonyl]-2-quinoxaline pentanoic acid], the inhibitory constant (Ki) under setting [2] was 2.1 to 20 nM.

On to `C[C@H](NC(=O)c1ccc2nc(-c3ccc(Cl)cc3)c(CC3CCC(C(=O)O)C3)nc2c1)c1ccccc1` (stereo partly drawn) [compound 404, 3-((3-(4-chlorophenyl)-7-(((S)-1-phenylethyl)carbamoyl)quinoxalin-2-yl)methyl)cyclopentane-carboxylic acid], for which, under “[3H]PGD2 competition, Table B”, the inhibition constant Ki lay within 2.1 to 20 nM.

For `O=C(O)Cc1cccc(CCc2nc3cc(C(=O)N[C@@H](CCO)c4ccccc4)ccc3nc2-c2ccc(F)cc2)c1` [compound 197, 3-[2-[3-(4-fluorophenyl)-7-[[(3-hydroxy-1(S)-phenylpropyl)amino]carbonyl]-2-quinoxalinyl]ethyl] benzeneacetic acid], the inhibition constant (Ki) is, setting by setting: under setting [2], 201 to 700 nM; under setting [1], 464 nM.

`C[C@H](NC(=O)c1ccc2nc(-c3ccc(Cl)cc3)c(CCCCC(=O)O)nc2c1)c1cncc2ccccc12` [compound 321, (S)-5-(3-(4-chlorophenyl)-7-((1-(isoquinolin-4-yl)ethyl)carbamoyl)quinoxalin-2-yl)pentanoic acid] showed an inhibition constant Ki ([3H]PGD2 competition, Table B) of 2.1 to 20 nM.

`CC(CCc1nc2cc(C(=O)N[C@H](c3ccc(F)cc3)C(F)(F)F)ccc2nc1-c1ccc(Cl)cc1)CC(=O)O` (stereo partly drawn) [17G] showed a Ki under setting [2] of 2.1 to 20 nM.

On to `C[C@H](c1ccc(Cl)cc1)N(C)C(=O)c1ccc2nc(-c3ccc(F)cc3)c(CCCCC(=O)O)nc2c1` [compound 242, 7-[[[1(R)-(4-chlorophenyl)ethyl]methylamino]carbonyl]-3-(4-fluorophenyl)-2-quinoxalinepentanoic acid], for which the Ki under setting [2] is 2.1 to 20 nM.

With `O=C(O)CCCCc1nc2cc(C(=O)N[C@H]3c4ccccc4C[C@H]3O)ccc2nc1-c1ccc(F)cc1` [compound 508, 5-(3-(4-fluorophenyl)-7-(((1S,2R)-2-hydroxy-2,3-dihydro-1H-inden-1-yl)carbamoyl)quinoxalin-2-yl)pentanoic acid], the inhibitory constant (Ki) ([3H]PGD2 competition, Table B) was 2.1 to 20 nM.

`O=C(O)CCCCc1nc2cc(C(=O)N[C@H]3CCc4ccccc43)ccc2nc1-c1ccc(F)cc1` [compound 230, 7-[[(2,3-dihydro-1H-inden-1(S)-yl)amino]carbonyl]-3-(4-fluorophenyl)-2-quinoxalinepentanoic acid] gave a Ki under setting [2] of 0.1 to 2 nM.

With `O=C(O)CCCCc1nc2cc(C(=O)NCc3ccc(OC(F)(F)F)cc3)ccc2nc1-c1ccc(F)cc1` [compound 107, 3-(4-fluorophenyl)-7-[[[[4-(trifluoromethoxy)phenyl]methyl]amino]carbonyl]-2-quinoxalinepentanoic acid], the inhibition constant (Ki) under setting [2] lay in the range of 2.1 to 20 nM.

In turn, `O=C(O)CCCCc1nc2cc(C(=O)N3CCC(c4ccccc4)CC3)ccc2nc1-c1ccc(C(F)(F)F)cc1` [compound 148, 7-[(4-phenyl-1-piperidinyl)carbonyl]-3-[4-(trifluoromethyl)phenyl]-2-quinoxalinepentanoic acid] had a Ki under setting [2] of 0.1 to 2 nM.

Compound `CC(C)[C@H](NC(=O)c1ccc2nc(-c3ccc(Cl)cc3)c(CCCCC(=O)O)nc2c1)c1ccc(F)cc1` [compound 402, (S)-5-(3-(4-chlorophenyl)-7-((1-(4-fluorophenyl)-2-methylpropyl)carbamoyl)quinoxalin-2-yl) pentanoic acid] yielded an inhibition constant Ki ([3H]PGD2 competition, Table B) of 2.1 to 20 nM.

In the case of `C[C@@H]1CN(c2ccc(F)cc2)CCN1C(=O)c1ccc2nc(-c3ccc(F)cc3)c(CCCCC(=O)O)nc2c1` [compound 489, (R)-5-(3-(4-fluorophenyl)-7-(4-(4-fluorophenyl)-2-methylpiperazine-1-carbonyl)quinoxalin-2-yl)pentanoic acid], the inhibition constant (Ki) ([3H]PGD2 competition, Table B) was 2.1 to 20 nM.

`C[C@@H](c1ccc(F)cc1)N(C)C(=O)c1ccc2nc(-c3ccccc3)c(CCCCC(=O)O)nc2c1` [compound 237, 7-[[[1(S)-(4-fluorophenyl)ethyl]methylamino]carbonyl]-3-phenyl-2-quinoxalinepentanoic acid]: the inhibition constant (Ki) under setting [2] was in the range of 2.1 to 20 nM.

As to `C[C@@H](NC(=O)c1ccc2nc(-c3ccc(F)cc3)c(CCCCC(=O)O)nc2c1)c1ccccc1` [compound 132, 3-(4-fluorophenyl)-7-[[(1(R)-phenylethyl)amino]carbonyl]-2-quinoxalinepentanoic acid], the inhibition constant (Ki) under setting [2] lay in the range of 2.1 to 20 nM.
